From ChEMBL document CHEMBL2095176, “GSK Tuberculosis Screening Data”
≈ marks a conversion by molar mass, not a printed value.

Tested on: Mycobacterium tuberculosis variant bovis BCG
Experiment: microbe, parasite or virus in culture
Format: functional

| Structure (SMILES) | MIC90 |
| --- | --- |
| O=C(CSc1ccc(Cl)cc1)NNC(=O)c1ccncc1 | 8.1 µM (≈ 2.61 µg/mL) |
| c1ccc(-c2nc(N3CCCCCC3)nc(-n3ccnc3)n2)cc1 | 9.6 µM (≈ 3.08 µg/mL) |
| CCOc1ccc(NC(=O)N(C2CCCCC2)C(C)c2cccnc2)cc1 (stereo not drawn) | 7.2 µM (≈ 2.65 µg/mL) |
| Cc1ccc(Nc2ccc(C(=O)O)cc2N)cc1 | 7.9 µM (≈ 1.91 µg/mL) |
| Clc1ccc(-c2nnc3sc(Cc4cccs4)nn23)cc1 | 7.5 µM (≈ 2.5 µg/mL) |
| O=C(Nc1nc(-c2ccccn2)cs1)c1cc2ccccc2o1 | 7 µM (≈ 2.25 µg/mL) |
| CCc1nnc(NC(=O)c2cccc(C(=O)Nc3nnc(CC)s3)n2)s1 | 1.5 µM (≈ 0.584 µg/mL) |
| CCC1=NN(C(=O)c2ccncc2)C(O)(c2ccncc2)C1 (stereo not drawn) | 6.9 µM (≈ 2.04 µg/mL) |
| Cn1c(Sc2ccnc(N3CCN(c4ccncc4)CC3)n2)nnc1C(N)=O | 6.9 µM (≈ 2.74 µg/mL) |
| CCCCN1CCC(Cc2noc(-c3cc(Cl)c(N)c4c3OCCO4)n2)C1 (stereo not drawn) | 6.9 µM (≈ 2.71 µg/mL) |
| O=C(Nc1nnc(-c2ccc(F)cc2)o1)c1ccc(Cl)cc1 | 6.9 µM (≈ 2.19 µg/mL) |
| O=C(Nc1ccc(C(F)(F)F)cc1)OCC1CCCN2CCCCC12 (stereo not drawn) | 6.9 µM (≈ 2.46 µg/mL) |
| COc1cccc(CNc2nc(C)cc(-c3cccc(CN(C)C)c3)n2)c1 | 7 µM (≈ 2.54 µg/mL) |
| CC1CCC(NC(=O)Nc2ccc3snnc3c2)CC1 (stereo not drawn) | 7 µM (≈ 2.03 µg/mL) |
| O=C(Nc1nc(-c2ccccn2)cs1)c1ccc(Oc2ccccc2)cc1 | 7 µM (≈ 2.61 µg/mL) |
| COc1ccc(S(=O)(=O)CC(=O)N(CCN(C)C)c2nc3c(C)ccc(Cl)c3s2)cc1 | 7 µM (≈ 3.37 µg/mL) |
| Cc1c(Cl)ccc2sc(N(CCN(C)C)C(=O)c3ccc(S(C)(=O)=O)cc3)nc12 | 7 µM (≈ 3.16 µg/mL) |
| COc1ccc(-c2ccc(Nc3cccc(S(=O)(=O)CCNCC4CCCO4)c3)nc2)cn1 (stereo not drawn) | 7 µM (≈ 3.28 µg/mL) |
| O=C(NC1CCN(Cc2ccc(F)cc2)C1)c1sccc1-c1cccc(Cl)c1 (stereo not drawn) | 7 µM (≈ 2.9 µg/mL) |
| Cc1nn(-c2nc(-c3ccccn3)nc3ccsc23)c(N)c1C#N | 7 µM (≈ 2.33 µg/mL) |
| COc1cc(C(=O)Nc2nc(-c3ccccn3)cs2)ccc1OCC(C)C | 7 µM (≈ 2.68 µg/mL) |
| CSc1ccc(C(=O)Nc2nnc(-c3ccc4c(c3)CCCC4)o2)cc1 | 7 µM (≈ 2.56 µg/mL) |
| COc1cc(CCN2CC[C@H](NC(=O)c3ccc(Cl)c(Cl)c3)C2)ccc1OC1CCNCC1 | 7 µM (≈ 3.45 µg/mL) |
| COc1cc(/C=C/C(=O)O)ccc1OCCN1CCCCCC1 | 7 µM (≈ 2.24 µg/mL) |
| COc1ccc(Nc2ccccc2NC(=O)c2ccc(O)nc2)cc1 | 9 µM (≈ 3.02 µg/mL) |

| Structure (SMILES) | MIC90 |
| --- | --- |
| Cc1c(C(=O)[C@@H]2C[C@H]2CN(Cc2ccccn2)Cc2ccccn2)sc2ccccc12 | 7.1 µM (≈ 3.04 µg/mL) |
| Cc1ccc(Cl)cc1Oc1ccncc1CNc1ccccc1S(C)(=O)=O | 7.1 µM (≈ 2.86 µg/mL) |
| NCCCOc1cccc2c(-c3ccncc3)c(-c3cccc(NC(=O)Nc4ccccc4)c3)nn12 | 7.1 µM (≈ 3.4 µg/mL) |
| Brc1ccc2cc(C3=NCCCO3)[nH]c2c1 | 7.1 µM (≈ 1.98 µg/mL) |
| Cc1cc(CN2CC[C@H](NC(=O)c3ccc(Cl)c(Cl)c3)C2)ccc1OCCN1CCNCC1 | 7.1 µM (≈ 3.49 µg/mL) |
| CSc1cccc(-c2nnc(NC(=O)c3ccc4c(c3)CCCC4)o2)c1 | 7.2 µM (≈ 2.63 µg/mL) |
| COc1ccc(NC(=O)c2ccc(CN3CCCCC3)o2)c(OC)c1 | 7.2 µM (≈ 2.48 µg/mL) |
| CCc1c(C)sc2nc(C)nc(SCC(=O)NCc3ccccc3)c12 | 7.2 µM (≈ 2.68 µg/mL) |
| C=Cn1cccc1C(=O)N1CCCC(n2cnc3sc(C)c(CC)c3c2=O)C1 (stereo not drawn) | 7.3 µM (≈ 2.89 µg/mL) |
| COc1ccc(-c2ccc(Nc3cccc(S(=O)(=O)CCN(C)CCc4ccccn4)c3)nc2)cn1 | 7.3 µM (≈ 3.68 µg/mL) |
| O=C(NC1CCN(Cc2ccsc2)C1)c1sccc1-c1cccc(F)c1 (stereo not drawn) | 7.3 µM (≈ 2.82 µg/mL) |
| COc1ccc(CN(C)S(=O)(=O)c2ccc(OC)c(-c3nc(C(C)C)no3)c2)cc1 | 7.3 µM (≈ 3.15 µg/mL) |
| O=C(Nc1nnc(-c2ccc(Cl)s2)o1)c1ccc(S(=O)(=O)N2CCCCC2)cc1 | 7.3 µM (≈ 3.31 µg/mL) |
| Cn1cc(-c2noc(/C=C3/CCN4CCCC[C@@H]4C3)n2)c2ccccc21 | 7.3 µM (≈ 2.54 µg/mL) |
| O=C(/C=C/c1ccccc1C(F)(F)F)Nc1ccc2c(c1)C1CCCN1CC2 (stereo not drawn) | 7.3 µM (≈ 2.82 µg/mL) |
| CN1CCCN(c2ncnc3sc(-c4ccccc4)cc23)CC1 | 7.4 µM (≈ 2.4 µg/mL) |
| COc1ccc(-c2ccc(Nc3cccc(S(=O)(=O)CCN(C)Cc4ccccc4)c3)nc2)cn1 | 7.4 µM (≈ 3.62 µg/mL) |
| CN1CCN(c2cc(-c3ccc(F)cc3)nc(-c3ccncc3)n2)CC1 | 7.9 µM (≈ 2.76 µg/mL) |
| Cc1cc(C)cc(Oc2ncnc(N3CCCC3CN)c2C)c1 (stereo not drawn) | 7.5 µM (≈ 2.34 µg/mL) |
| O=C(Nc1ccc(F)c(Cl)c1)c1cnc(N2CCN(c3ncccn3)CC2)c2ccccc12 | 7.5 µM (≈ 3.47 µg/mL) |
| NC(=O)c1cccc(-c2ccc(OCCCN3CC[C@@H](OCc4ccccc4)C3)cc2)c1 | 7.5 µM (≈ 3.23 µg/mL) |
| NC(=O)c1cnc2ccc(S(=O)(=O)c3ccccc3)cc2c1Nc1ccc(O)c(F)c1 | 7.5 µM (≈ 3.28 µg/mL) |
| COc1ccc(Cc2nn3c(-c4ccc(C)cc4)nnc3s2)cc1 | 7.5 µM (≈ 2.52 µg/mL) |
| C[C@@H]1CN(c2ncnc3c2nc(C2CC2)n3C2CCNC2)C[C@H](C)O1 (stereo partly drawn) | 7.5 µM (≈ 2.57 µg/mL) |
| c1cc(Oc2ccnc(N3CCC4(CCNC4)CC3)n2)c2cc[nH]c2c1 | 7.5 µM (≈ 2.62 µg/mL) |

| Structure (SMILES) | MIC90 |
| --- | --- |
| COc1ccc(-c2ccc(Nc3cccc(S(=O)(=O)CCNCCc4cccs4)c3)nc2)cn1 | 7.2 µM (≈ 3.56 µg/mL) |
| Cc1ccc2nc(Cl)c(CNCc3cccs3)cc2c1 | 7.2 µM (≈ 2.18 µg/mL) |
| Cc1ccc2nc(NC(=O)c3cc(C)nc4c3c(C)nn4C(C)C)sc2c1 | 7.6 µM (≈ 2.88 µg/mL) |
| COc1cccc(C(=O)Nc2nc(-c3ccccn3)cs2)c1 | 7.6 µM (≈ 2.37 µg/mL) |
| CCc1c(C)nc(-c2cccc(F)c2)nc1N1CCNCC1 | 7.6 µM (≈ 2.28 µg/mL) |
| COc1ccc(-c2nnc(NC(=O)c3ccc(Br)s3)o2)cc1 | 7.6 µM (≈ 2.89 µg/mL) |
| O=C(NC1CCNCC1)c1nn(-c2ccc(Cl)cc2)c(=O)cc1N1CCC(Cc2ccccc2)CC1 | 7.6 µM (≈ 3.85 µg/mL) |
| COC(=O)COc1ccc(CCn2nnc(-c3ccc(C(F)(F)F)cc3)n2)cc1 | 7.6 µM (≈ 3.09 µg/mL) |
| O=C(Nc1ccccc1-c1nc(Cl)cs1)OCCOC1CCNCC1 | 7.6 µM (≈ 2.9 µg/mL) |
| O=C(NC(Cc1ccccc1)C(=O)Nc1ccccc1N1CCOCC1)c1cccs1 (stereo not drawn) | 1.8 µM (≈ 0.784 µg/mL) |
| Cc1ccc2nc(C)c(C(=O)NCC(C)C)n2c1 | 4.8 µM (≈ 1.18 µg/mL) |
| COc1ccccc1NC(=O)CN(Cc1ccco1)C(=O)c1cccc(-n2cnnn2)c1 | 7.7 µM (≈ 3.33 µg/mL) |
| COc1ccc(C(=O)[C@H]2C[C@@H]2CN(Cc2ccccn2)Cc2ccccn2)cc1 | 7.7 µM (≈ 2.98 µg/mL) |
| Oc1ccc(Nc2ccccc2Nc2ccccc2)cc1Cl | 7.7 µM (≈ 2.39 µg/mL) |
| CCCc1ccc(S(=O)(=O)Nc2ccc(CN3CCN(CC4CC4)CC3)cc2)cc1.O=C(O)C(F)(F)F.O=C(O)C(F)(F)F | 8.1 µM |
| Cc1ccc(SCCNC(=O)c2c(-c3ccccc3)noc2C)cc1 | 8.7 µM (≈ 3.07 µg/mL) |
| O=C(Nc1nnc(-c2ccc(Cl)s2)o1)c1ccc(Cl)s1 | 7.5 µM (≈ 2.6 µg/mL) |
| Cc1cc(C)c(C)c(OCCCCNCc2ccco2)c1 | 7.8 µM (≈ 2.24 µg/mL) |
| CCCOc1c(Br)cc(CNCC)cc1OCC | 7.8 µM (≈ 2.47 µg/mL) |
| CN(CCOc1cccc(-c2ccc(C(=O)N3CCCC3)cc2)c1)Cc1ccc(F)cc1 | 7.8 µM (≈ 3.37 µg/mL) |
| O=S(=O)(c1ccc(Cl)cc1)N1CCC(n2nnc3cc(C(F)(F)F)ccc32)CC1 | 7.8 µM (≈ 3.47 µg/mL) |
| CC(=CC(=O)NC12CC3CC(CC(C3)C1)C2)c1cccc(Cl)c1 | 7.8 µM (≈ 2.57 µg/mL) |
| c1ccc(Cc2nnc(Sc3ccnc(N4CCN(c5ccncc5)CC4)n3)n2CCN2CCOCC2)cc1 | 9.9 µM (≈ 5.38 µg/mL) |
| CC1=Nc2ccccc2CN1CC(O)c1cc(Br)cs1 (stereo not drawn) | 8.4 µM (≈ 2.95 µg/mL) |
| Cc1c(Cl)cc(F)cc1S(=O)(=O)NCCCn1nc(Cl)c(N2CCCNCC2)cc1=O | 7.9 µM (≈ 3.89 µg/mL) |

| Structure (SMILES) | MIC90 |
| --- | --- |
| COc1ccc(-c2ccc(Nc3cccc(S(=O)(=O)CCN(C)Cc4cccs4)c3)nc2)cn1 | 7.9 µM (≈ 3.91 µg/mL) |
| CCCn1nnnc1NC(=O)c1ccc(Cl)c(Cl)c1 | 7.9 µM (≈ 2.37 µg/mL) |
| CNC(=O)c1cc(Nc2ncc(F)c(N(C)c3ccc4c(C)[nH]nc4c3)n2)cc(OCCCN)c1 | 7.9 µM (≈ 3.78 µg/mL) |
| CC(=O)CCN1C(=O)C(=O)c2cc(Br)ccc21 | 7.9 µM (≈ 2.34 µg/mL) |
| O=C(Nc1nc(-c2ccccn2)cs1)c1cncn1-c1ccccc1 | 4.9 µM (≈ 1.7 µg/mL) |
| CCCOC(=O)COc1ccc2c(=O)c(-c3ccccc3OC)coc2c1 | 9.8 µM (≈ 3.61 µg/mL) |
| CN(C)S(=O)(=O)c1ccc(C(=O)Nc2nnc(-c3ccc(Br)cc3)o2)cc1 | 8 µM (≈ 3.61 µg/mL) |
| O=C(c1cccc(-n2cnnn2)c1)N1CCCCC1c1nc2ccccc2s1 (stereo not drawn) | 8 µM (≈ 3.12 µg/mL) |
| O=C(Nc1ccccc1-c1nc(Br)cs1)OCC1CCNCC1 | 8 µM (≈ 3.17 µg/mL) |
| Cc1cc(/C=C/c2cccc(C(=O)O)c2)cc(Cl)c1OC1CCN(C)C1 (stereo not drawn) | 8 µM (≈ 2.97 µg/mL) |
| Cc1nc(SCC(=O)Nc2sccc2C#N)n(Cc2ccc(Cl)cc2)c1C | 8.1 µM (≈ 3.38 µg/mL) |
| Cc1[nH]n2c(=O)cc(-c3ccccc3Cl)nc2c1-c1ccccc1 | 8.1 µM (≈ 2.72 µg/mL) |
| Cn1c(CNCCc2nc(C(=O)N3Cc4ccccc4C3)cs2)nc2ccccc21 | 8.1 µM (≈ 3.38 µg/mL) |
| CCCCOc1ccc(NC(=O)C2CCCCC2)cc1 | 8.1 µM (≈ 2.23 µg/mL) |
| CCn1c(-c2nonc2N)nc2c(C#Cc3ccccc3)ncc(OCCCCN)c21 | 8.1 µM (≈ 3.38 µg/mL) |
| C=CCc1cc(C(=O)NC2CCC(C(C)(C)C)CC2)ccc1OC (stereo not drawn) | 8.1 µM (≈ 2.67 µg/mL) |
| COc1ccc(-c2cc(NC(=O)c3ccc(F)cc3Cl)ccc2OC)cc1 | 8.2 µM (≈ 3.16 µg/mL) |
| O=C(CNc1ccccc1Nc1ccccc1)N1CCCC1 | 8.2 µM (≈ 2.42 µg/mL) |
| O=C(CSc1nnc(Nc2ccccc2)s1)NNC(=O)c1cccs1 | 8.2 µM (≈ 3.21 µg/mL) |
| c1ccc(-c2nc(NC3CCCCC3)cc(C3CC3)n2)nc1 | 3.7 µM (≈ 1.09 µg/mL) |
| CCCc1cc(=O)[nH]c(-n2nc(C)cc2NC(=O)CC(c2ccccc2)c2ccccc2)n1 | 7.5 µM (≈ 3.31 µg/mL) |
| Cc1ccc2[nH]c(C3CCCNC3)c(-c3ccncc3)c2c1 (stereo not drawn) | 8.9 µM (≈ 2.59 µg/mL) |
| Cc1ccc2nc(N(CCCn3ccnc3)C(=O)C=Cc3cccs3)sc2c1 | 8.2 µM (≈ 3.35 µg/mL) |
